25 compounds from ChEMBL document CHEMBL1201862, “PubChem BioAssay data set” (2004) can be followed below.

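Compound exposure: 48 hours, 5 concentrations, 96-well plates. GI50 = concentration required for 50% inhibition of growth.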 Active and inactive are the calls of the source. Rule as the data show it: active = GI50 up to about 1.1 µM and inactive = higher.

Some test systems named below: SNB-78; DMS-114; XF498; DMS-273; DLD-1; M19-MEL; HOP-18; KM-20L2; RXF 631.
Holding throughout (assay): NCI tumour cell line growth inhibition, 48 h

For `CC(Oc1ccc(OCC2CCCCC2)cc1)C(=O)OCC(=O)c1ccc(-c2ccccc2)cc1` (stereo not given), the GI50 with SNB-78, with DMS-114, with XF498, in the experiment on DMS-273, in the experiment with DLD-1 and with M19-MEL was > 100 µM (inactive) in each case. In the experiment on HOP-18, the GI50 is 22.6 µM (inactive).

As to `CC(C)Cc1ccc(C(C)/C=C2\CCC(CN3CCCCC3)C2=O)cc1` (stereo not given), the GI50 is 10.4 µM (inactive) in the experiment on KM-20L2; 5.74 µM (inactive) in the experiment with SNB-78; 2.22 µM (inactive) in the experiment on DMS-114; 6.78 µM (inactive) with XF498; 2.86 µM (inactive) in the experiment with DMS-273; 2.33 µM (inactive) in the experiment on DLD-1. The GI50 in the experiment on M19-MEL was 2.54 µM (inactive); with HOP-18 it was 16.6 µM (inactive).

As for `NC(=O)NC1C(C(N)=O)N(Cc2ccccc2)C(=O)N1Cc1ccccc1` (stereo not given), the GI50 was 46 µM (inactive) in the experiment on KM-20L2; > 100 µM (inactive) in the experiment with SNB-78; > 100 µM (inactive) in the experiment on DMS-114; > 100 µM (inactive) with XF498; > 100 µM (inactive) with DMS-273; > 100 µM (inactive) in the experiment on DLD-1. Besides, the GI50 in the experiment on M19-MEL, in the experiment on HOP-18 and in the experiment on RXF 631 was > 100 µM (inactive) throughout.

Consider `COc1cc2c(cc1OC)[C@]1(O)C(=O)c3ccc4c(c3O[C@@H]1CO2)C[C@H](C(C)(C)O)O4`, for which the GI50 with KM-20L2 was > 100 µM (inactive); in the experiment on SNB-78, > 100 µM (inactive); with DMS-114, 3.61 µM (inactive); in the experiment with XF498, > 100 µM (inactive); in the experiment on DMS-273, > 100 µM (inactive); in the experiment on DLD-1, > 100 µM (inactive). In addition, the GI50 in the experiment on M19-MEL is > 100 µM (inactive).

Regarding `N#CC(NNC(=O)Cc1ccccc1)c1ccc([N+](=O)[O-])cc1` (stereo not given), the GI50 is > 100 µM (inactive) in the experiment with SNB-78; > 100 µM (inactive) in the experiment on DMS-273; > 100 µM (inactive) in the experiment on DLD-1; > 100 µM (inactive) in the experiment with M19-MEL; 82.8 µM (inactive) with HOP-18.

As for `CCOC(=O)CCC(NC(=O)c1ccc(NC(OC)c2nc3cc(C(F)(F)F)ccc3nc2-c2ccccc2)cc1)C(=O)OCC` (stereo not given), the GI50 in the experiment with KM-20L2 is 13.6 µM (inactive); with SNB-78, 19.1 µM (inactive); in the experiment on DMS-114, 12.7 µM (inactive); with DMS-273, 7.36 µM (inactive); in the experiment with DLD-1, 9.4 µM (inactive); in the experiment on M19-MEL, 14.7 µM (inactive). Moreover, the GI50 with HOP-18 was 18.5 µM (inactive); in the experiment with RXF 631 it was 13.7 µM (inactive).

As for `Cc1cccc(CC(C)(C)C)c1NC(=O)C(=O)C(C(=O)c1ccc2ccccc2c1)C1OC(=O)c2ccccc21` (stereo not given), the GI50 with SNB-78 is 11.5 µM (inactive); in the experiment on DMS-114 it was 10.4 µM (inactive); in the experiment with DLD-1, 14 µM (inactive); in the experiment with M19-MEL it was 14.6 µM (inactive).

As to `N#CCCc1nc2ccc(Br)cc2c(=O)n1CCO`, the GI50 is > 100 µM (inactive) with SNB-78; > 100 µM (inactive) with DMS-114; 95.7 µM (inactive) with XF498; > 100 µM (inactive) in the experiment on DLD-1; > 100 µM (inactive) with M19-MEL; > 100 µM (inactive) in the experiment with RXF 631.

`CC1=CC(=O)NP(=O)(Oc2ccc(Cl)cc2)N1` (stereo not given): the GI50 in the experiment on KM-20L2, in the experiment on SNB-78, with DMS-114, in the experiment with XF498, in the experiment with DMS-273 and with DLD-1 was > 100 µM (inactive) throughout. Further, the GI50 in the experiment with M19-MEL and in the experiment on HOP-18 was > 100 µM (inactive) throughout.

On to `CCOC(=O)C1=C(OC(OCC)C(CC)[Se]c2ccccc2)CCC1` (stereo not given), for which the GI50 with KM-20L2 is 29.8 µM (inactive); with SNB-78, 24.5 µM (inactive); with DMS-114 it was 4.62 µM (inactive); with XF498, 23.1 µM (inactive); with DMS-273, 13.2 µM (inactive); with DLD-1, 19.3 µM (inactive). The GI50 with M19-MEL is 14.4 µM (inactive); with HOP-18, 23.1 µM (inactive); in the experiment on RXF 631 it was 10.3 µM (inactive).

`C/C(=N\N(c1ccccc1)c1ccccc1)c1c(O)cc(C)oc1=O`: the GI50 in the experiment on KM-20L2 was > 100 µM (inactive); in the experiment on SNB-78 it was > 100 µM (inactive); in the experiment with DLD-1, 76.2 µM (inactive); with M19-MEL it was 81.7 µM (inactive); with HOP-18 it was > 100 µM (inactive).

As for `Cc1cccc(C(=O)O)c1C(=O)c1cccc2ccccc12`, the GI50 in the experiment with KM-20L2 was 33.5 µM (inactive); with SNB-78, > 100 µM (inactive); in the experiment with DMS-114 it was > 100 µM (inactive); in the experiment with DMS-273, > 100 µM (inactive); in the experiment with DLD-1 it was > 100 µM (inactive); with M19-MEL it was > 100 µM (inactive). The GI50 with HOP-18 was > 100 µM (inactive).

Turning to `C=C1Cc2cc(OC)c(OC)c(OC)c2-c2ccc(SC)c(=O)cc21`, the GI50 with KM-20L2, in the experiment on SNB-78, with DMS-114, in the experiment on XF498, in the experiment with DMS-273 and in the experiment on DLD-1 was < 0.01 µM (active) in each case. The GI50 with M19-MEL is < 0.01 µM (active); in the experiment on HOP-18, 4.92 µM (inactive).

With `Cc1cc(C(=O)NCCN(C)C)c2nc3ccccc3nc2c1`, the GI50 in the experiment on KM-20L2 is 3.1 µM (inactive); in the experiment on SNB-78, 12.8 µM (inactive); with DMS-114 it was 3.19 µM (inactive); in the experiment on DMS-273, 3.87 µM (inactive); with DLD-1, 4.08 µM (inactive); in the experiment on M19-MEL, 3.13 µM (inactive). In addition, in the experiment on HOP-18, the GI50 was > 35.1 µM (inactive).

For `O=C1C(c2ccccc2)=C(c2ccccc2)[C@H](c2ccccc2)[C@]1(Cc1nnn(-c2ccc([N+](=O)[O-])cc2)c1N1CCOCC1)c1ccccc1`, the GI50 in the experiment with KM-20L2 was > 37.5 µM (inactive); in the experiment on SNB-78, > 37.5 µM (inactive); in the experiment on DMS-114 it was > 37.5 µM (inactive); in the experiment with XF498 it was 8.3 µM (inactive); in the experiment on DMS-273, 24.9 µM (inactive); in the experiment with DLD-1 it was > 37.5 µM (inactive). The GI50 in the experiment with M19-MEL, in the experiment with HOP-18 and in the experiment on RXF 631 was > 37.5 µM (inactive) in each case.

Consider `Cc1ccc(S(=O)(=O)N[C@H](C(=O)O)c2ccccc2)cc1`, for which the GI50 with KM-20L2, in the experiment on XF498, in the experiment with DMS-273, with DLD-1, in the experiment on M19-MEL and in the experiment on HOP-18 was > 100 µM (inactive) throughout. Besides, the GI50 in the experiment with RXF 631 is > 100 µM (inactive).

As for `COc1cccc(-c2cc(O)c3cc(OC)c(OC)cc3n2)c1`, the GI50 in the experiment with KM-20L2 is 26.6 µM (inactive); in the experiment on SNB-78 it was 29.9 µM (inactive); in the experiment on DMS-273, 36.3 µM (inactive); in the experiment with DLD-1, 42.3 µM (inactive); in the experiment on M19-MEL, 59.8 µM (inactive).

On to `CCCCCCCCCCCC(=O)OCC1OC(n2cc(F)c(=O)[nH]c2=O)C(NC(=O)OCc2ccccc2)C(O)C1O` (stereo not given), for which the GI50 was 21.4 µM (inactive) with KM-20L2, 28.9 µM (inactive) in the experiment with SNB-78, 19 µM (inactive) with DMS-273 and 20 µM (inactive) with M19-MEL.

On to `CC(C)C(/C=C/c1ccccc1)=N\NC(=O)N/N=C(/C=C/c1ccccc1)C(C)C`, for which the GI50 is 22.5 µM (inactive) with KM-20L2; 28.1 µM (inactive) with SNB-78; 13 µM (inactive) in the experiment with DMS-114; 26.4 µM (inactive) with XF498; 19.8 µM (inactive) in the experiment with DMS-273; 34.8 µM (inactive) in the experiment with DLD-1. In the experiment with M19-MEL, the GI50 is 21 µM (inactive).

As to `CC(C)(C)C(=O)O[C@@H]1COC2C(O)COC21` (stereo not given in full), the GI50 in the experiment on SNB-78, in the experiment on DMS-114, in the experiment on XF498, with DMS-273, in the experiment on DLD-1 and in the experiment on M19-MEL was > 100 µM (inactive) each time. In addition, the GI50 in the experiment on HOP-18 and with RXF 631 was > 100 µM (inactive) each time.

Consider `O=[N+]([O-])c1cccc(C2SCc3nc4ccccc4n32)c1` (stereo not given), for which the GI50 with KM-20L2 was > 100 µM (inactive); in the experiment with SNB-78, > 100 µM (inactive); in the experiment with DMS-114 it was 53.5 µM (inactive); in the experiment on XF498, > 10 µM (inactive); with DMS-273, 85.7 µM (inactive); with DLD-1, 62.8 µM (inactive). The GI50 in the experiment with M19-MEL and in the experiment with HOP-18 was > 100 µM (inactive) each time.

In the case of `N#CC1C2CCC3(CC2CCN1C(=O)c1ccccc1)OCCO3` (stereo not given), the GI50 with KM-20L2, with SNB-78, in the experiment with DMS-114, in the experiment on XF498, in the experiment on DMS-273 and in the experiment on DLD-1 was > 100 µM (inactive) throughout. In addition, the GI50 with M19-MEL and in the experiment with HOP-18 was > 100 µM (inactive) each time.

For `N/N=C1\C(=O)N(Cc2ccccc2)C(=O)C1C(=O)NCc1ccccc1` (stereo not given), the GI50 in the experiment with KM-20L2, in the experiment on SNB-78, in the experiment with DMS-114, in the experiment with DLD-1, in the experiment on M19-MEL and in the experiment on HOP-18 was > 100 µM (inactive) in each case.

Take `CC1=C(/C(C)=N/NS(=O)(=O)c2ccc(C)cc2)Sc2ccccc2N1`: the GI50 was > 100 µM (inactive) in the experiment on KM-20L2; > 100 µM (inactive) with SNB-78; 43.4 µM (inactive) with DMS-114; 78.3 µM (inactive) with DMS-273; 43.7 µM (inactive) with M19-MEL; 72.1 µM (inactive) with HOP-18. Also, the GI50 in the experiment with RXF 631 is > 100 µM (inactive).

Take `CC1=C(C(=O)NCc2ccccc2)C(c2ccc([N+](=O)[O-])cc2)C(C(=O)NCc2ccccc2)=C(C)N1`: the GI50 with KM-20L2 was 22 µM (inactive); with SNB-78, 78.7 µM (inactive); in the experiment on DMS-114, 30.2 µM (inactive); in the experiment on XF498, 59 µM (inactive); in the experiment with DMS-273, 40.6 µM (inactive); in the experiment on DLD-1, 36.7 µM (inactive). The values for the GI50 in the experiment on M19-MEL and with HOP-18 were 21.3 µM (inactive) and > 100 µM (inactive), respectively.
